{
  "source": "paper PMC4411110",
  "about": "(PLoS ONE, 2015)",
  "key": {"in vitro": {"experiment": "in vitro", "details": "rat", "quoted_text": "(§2) This BBB model was reconstructed by the culture of both primary rat brain micro vascular endothelial cells and rat brain pericytes separated by a macroporous Millicell membrane (24 wells, pore size: 3.0 μm, Millipore, Bedford, MA, USA). Briefly, we pre-incubated the BBB kits at 37 °C in 5% CO2 conditions for 4–5 days, in order to strongly reconstruct the barrier integrity and tight-junctions. To evaluate the barrier integrity and confirm the functionality of the tight-junctions, trans-endothelial electrical resistance (TEER) was measured at day 5-post incubation. Assays were carried out using TEER values in the range of 150-to 300-Ω cm^2 [11]. Once the tight junctions reach a TEER of 300-Ω cm^2, 0.9 mL PBS-based assay medium was added to blank 24-well culture plates. Prior to incubation, selected compounds were diluted in DMSO 100%. The compounds suspended in 0.2 mL assay medium were fortified into the apical side and incubated for 30 min. Next, the medium from both the apical and the basolateral sides were collected and further analyzed by liquid chromatography–mass spectrometry."}, "MOG35-55-induced EAE": {"tested_on": "MOG35-55-induced EAE", "experiment": "EAE mouse model of MS, clinical paralysis score", "format": "in vivo, female C57BL/6 mice", "details": "EAE mice, oral daily from onset of signs, TM5484 5 mg/kg/d, fingolimod 0.5 mg/kg, 6α-methylprednisolone 5 mg/kg", "protocol": "(§1) All animal experiments conformed to the National Health Guide for the Care and Use of Laboratory Animals and were approved by the Animal Committee at Tohoku University. Studies were performed on 11-week-old female C57BL/6 mice (n = 8–10, each group) and 10-week-old Lewis rats (n = 6–8, each group), obtained from SJC, Japan SLC (Hamamatsu, Shizuoka, Japan). Animals were housed under a 12h light-dark cycle and given regular chow, MF (Oriental Yeast Co., Ltd.).\nExperimental autoimmune encephalomyelitis (EAE) was induced in mice as described previously. Briefly, on day 0, 200 microgramme of myelin oligodendrocyte glycoprotein^35–55 (MOG^35–55) peptide was injected s.c, twice, in the lower and upper back of the mice, in an equal volume of complete Freund’s adjuvant (Hooke Laboratories, Inc.). Next, 200 ng of pertussis toxin (Hooke Laboratories, Inc.) dissolved in PBS was applied i.p. On day 1, another 200 ng of pertussis toxin was administered. For rats, 200 microgramme of myelin basic protein^69-88 (MBP^69-88) was injected (Hooke Laboratories, Inc.) twice, in the lower back on day 0. Animals were scored for motor paralysis on a daily basis. Disease severity was assessed using a scale ranging from 0 to 5 (Hooke Laboratories, Inc.): 0, normal; 1, limp tail; 1.5, Limp tail and hind leg inhibition; 2, Limp tail and weakness of hind legs.; 2.5, Limp tail and dragging of hind legs; 3, Limp tail and complete paralysis of hind legs; 3.5, Limp tail and complete paralysis of hind legs and Hind legs are together on one side of body; 4, Limp tail, complete hind leg and partial front leg paralysis; 4.5, Complete hind and partial front leg paralysis, no movement around the cage; 5, Mouse is spontaneously rolling in the cage. Mice were typically observed for 28 days, during which they will remain chronically paralyzed."}, "[1]": {"tested_on": "in vitro model of BBB (primary rat brain micro vascular endothelial cells and rat brain pericytes)", "experiment": "In vitro BBB penetration assay (BBB Kit RBT-24H)", "details": "in vitro BBB model, apical to basolateral, 30 min, n = 3", "quoted_text": "as §2"}, "[2]": {"tested_on": "MOG35-55-induced EAE, motor coordination", "experiment": "Foot print analysis in EAE mice", "format": "in vivo, female C57BL/6 mice", "protocol": "Briefly, to obtain footprints, the hind- and forefeet of the mice were coated with black non-toxic paint. The floor of the open field box was covered with white paper. Each mouse was placed in a corner of the open field and allowed to walk across the paper, leaving a track of footprints. If a mouse didn’t walk forward, the task was considered a failure. For each step parameter, three values were measured from each run, excluding footprints made at the beginning and end of the run where the animal was initiating and finishing movement respectively. The mean value of each set of three values was used for analysis."}, "[3]": {"tested_on": "gene expression in spinal cord and spleen", "experiment": "qRT-PCR gene expression in spinal cord and spleen of EAE mice", "format": "in vivo, female C57BL/6 mice", "protocol": "Spinal cord was harvested from mice and snap frozen in liquid nitrogen (n = 6–7, each group). Total RNA was extracted from spinal cord and spleen using ISOGEN (Nippon Gene). qRT-PCR analysis was performed as described previously. Briefly, qRT-PCR was performed on a LightCycler rapid thermal cycler system using a LightCycler 480 SYBR Green I Master (Roche Applied Science) according to the manufacturer's instructions. Data were analyzed by using the comparative Ct method as means of relative quantification, normalized to an endogenous reference (b-actin, Actb). The sequences of the primers are described below: […]"}, "[4]": {"tested_on": "spinal cord (lumbar segments)", "experiment": "Histology of spinal cord of EAE mice", "format": "in vivo, female C57BL/6 mice", "description": "Mice were perfused in the heart with saline 0.9% followed by neutral-buffered formalin 10% (n = 3-4/group). Slides from different sections of the spinal cord were immersed and fixed overnight in 10% neutral-buffered formalin. Next, samples were transfered and immersed in a 10, 20 and 30% sucrose solution for consecutive nights. Sections were embedded in O.C.T compounds (Sakura Finetek, Japan) for the subsequent immunostaining study. Four sections of the spinal cord from each group were examined. Since the clinical manifestations are typically initiated as limp tail and hind-limb paralysis in this model, we focused on lumbar spinal segments. Frozen specimens were then incubated overnight at room temperature and stained with Cd11b for macrophage infiltration (Abcam), myelin basic protein (MBP) for demyelination, neurofilament non-phosphorylated (SMI-32) for axonal damage, collagen IV for extracellular matrix depositions (Abcam) and fibrinogen (Funakoshi, Japan). Incubation for 2 hs at room temperature in corresponding biotinylated goat secondary antibody was performed. For immunofluorescence, the sections were incubated overnight at room temperature using primary antibody Iba-1 for microglia activation (Wako Chemicals). After wash in PBS, the sections were then incubated in corresponding fluorescent goat secondary antibody (Wako Chemicals). For Cd11b, the number of positive macrophage was quantified as the total cells per selected area. The area of demyelination was calculated as the percentage of negative staining for MBP per selected area. As for axonal damage and collagen IV deposition, the positive staining per selected area was analyzed and calculated as the percentage per total area. For Quantification analysis was assessed by ImageJ TM software (version 1.440, National Institute of Health, Bethesda, MD, USA)."}, "MBP69-88-induced EAE": {"tested_on": "MBP69-88-induced EAE", "experiment": "EAE rat model of MS, clinical paralysis score", "format": "in vivo", "details": "EAE Lewis rats, from onset of signs, dpi 15; TM5484 5 mg/kg/d, fingolimod 0.5 mg/kg", "protocol": "as §1\nExperimental autoimmune encephalomyelitis (EAE) was induced in mice as described previously. […] Animals were scored for motor paralysis on a daily basis. Disease severity was assessed using a scale ranging from 0 to 5 (Hooke Laboratories, Inc.): 0, normal; 1, limp tail; 1.5, Limp tail and hind leg inhibition; 2, Limp tail and weakness of hind legs.; 2.5, Limp tail and dragging of hind legs; 3, Limp tail and complete paralysis of hind legs; 3.5, Limp tail and complete paralysis of hind legs and Hind legs are together on one side of body; 4, Limp tail, complete hind leg and partial front leg paralysis; 4.5, Complete hind and partial front leg paralysis, no movement around the cage; 5, Mouse is spontaneously rolling in the cage. […]"}, "[5]": {"experiment": "In vitro BBB penetration assay (BBB Kit RBT-24H)", "details": "rat", "quoted_text": "as §2"}},
  "note": "Entries after “also recorded” stand apart in the source; their conditions may differ.",
  "data": [
    {"smiles": "CC(C)NCC(O)COc1cccc2ccccc12", "note": "(stereo not shown) [Propanolol]", "values": [
      {"measurement": "Papp at 30 min", "setting": "in vitro", "value": 31.3, "unit": "×10⁻⁶ cm/s"}
    ]},
    {"smiles": "C[C@H]1C[C@@H]2[C@H]([C@@H](O)C[C@@]3(C)[C@H]2CC[C@]3(O)C(=O)CO)[C@@]2(C)C=CC(=O)C=C12", "note": "[6α-methylprednisolone]", "values": [
      {"measurement": "motor paralysis score", "setting": "MOG35-55-induced EAE", "value": "ameliorated the motor paralysis"},
      {"measurement": "motor paralysis score", "setting": "MOG35-55-induced EAE; listed as 6-α methylprednisone", "value": "attenuated the paralysis score to the level observed with TM5484"}
    ]},
    {"smiles": "O=C(COCC(=O)Nc1ccc(Cl)cc1C(=O)O)Nc1cccc(-c2ccoc2)c1", "note": "[TM5441]", "values": [
      {"measurement": "apparent permeability coefficient (Papp)", "setting": "[1]", "value": "32.1 x 10^–6 cm/s"}
    ]},
    {"smiles": "CCCCCCCCc1ccc(CCC(N)(CO)CO)cc1", "note": "[fingolimod]", "values": [
      {"measurement": "motor paralysis score", "setting": "MOG35-55-induced EAE", "value": "ameliorated the motor paralysis; also recorded: attenuated the paralysis score to the level observed with TM5484"},
      {"measurement": "stride length", "setting": "[2]; dpi 28, TM5484 5 mg/kg/d, fingolimod 0.5 mg/kg", "value": 5.48, "unit": "cm"},
      {"measurement": "stride length (in words)", "setting": "[2]; oral administration", "value": "significantly preserved the stride length"},
      {"measurement": "BDNF expression", "setting": "[3]; spinal cord", "value": "did not restore BDNF expression"},
      {"measurement": "ChAT expression", "setting": "[3]; spinal cord", "value": "up-regulated ChAT expression"},
      {"measurement": "PAI-1 mRNA expression", "setting": "[3]; spinal cord", "value": "no effects"},
      {"measurement": "gene expression of inflammatory markers (TNF-α, IL-6, Ccl2, Cd68)", "setting": "[3]; spinal cord and spleen, dpi 28, treatment from onset of paralysis", "value": "able to modulate these inflammatory effects"},
      {"measurement": "BDNF expression", "setting": "[3]; spinal cord, listed as Fingolimod", "value": "no effects"},
      {"measurement": "expression of IL-10", "setting": "[3]; spleen", "value": "upregulated"},
      {"measurement": "fibrin (fibrinogen) deposition", "setting": "[4]", "value": "no changes were observed"},
      {"measurement": "collagen IV deposition", "setting": "[4]; dpi 28", "value": "able to ameliorate collagen IV deposition"},
      {"measurement": "demyelination (anti-MBP staining)", "setting": "[4]; dpi 28", "value": "reduced"},
      {"measurement": "macrophage accumulation and microglia activation (Cd11b and Iba-1 staining)", "setting": "[4]; dpi 28, TM5484 5 mg/kg/d, fingolimod 0.5 mg/kg/d", "value": "significantly reduced; also recorded: ameliorated"},
      {"measurement": "paralysis score at the peak of the paralysis", "setting": "MBP69-88-induced EAE", "value": "reduced the paralysis score to a level similar to TM5484"},
      {"measurement": "Papp at 30 min", "setting": "[5]", "value": 56, "unit": "×10⁻⁶ cm/s"}
    ]}
  ]
}
